From patent US12053470B2, “Pharmaceutical combination comprising an ALK inhibitor and a SHP2 inhibitor” (Novartis AG, priority 2017, dated 2024)

tested on: Ceritinib resistant MGH049 cells; assay: Cell colony formation assay with ceritinib resistant MGH049 cells;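 further: tested compounds are SHP2 inhibitors given alone, colonies fixed and crystal violet stained, DMSO reference taken as the mean of six readings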; type: cell-based, human; details: Homo sapiens, 168 h; compound of Table 1 (3 μM) alone, 7 days; normalized to DMSO without compound = 100; read-out: Normalized Crystal Violet abs. (590 nm) DMSO

Row | Compound | activity at 3 µM
1 | C[C@@H]1OCC2(CCN(c3nc(N)c(Sc4cccc(N)c4C(F)(F)F)c(=O)n3C)CC2)[C@@H]1N [compound 32, 6-amino-5-((3-amino-2-(trifluoromethyl)phenyl)thio)-2-((3S,4S)-4-amino-3-methyl-2-oxa-8-azaspiro[4.5]decan-8-yl)-3-methylpyrimidin-4(3H)-one] | 58.2%
2 | Nc1nc(N2CCC3(CC2)CC(F)(F)C[C@H]3N)cnc1Sc1cccc(NC(=O)c2c(O)nc3n(c2=O)CCCC3)c1Cl [compound 49, (R)-N-(3-((3-amino-5-(1-amino-3,3-difluoro-8-azaspiro[4.5]decan-8-yl)pyrazin-2-yl)thio)-2-chlorophenyl)-2-hydroxy-4-oxo-6,7,8,9-tetrahydro-4H-pyrido[1,2-a]pyrimidine-3-carboxamide] | 26.5%
3 | C[C@@H]1OCC2(CCN(c3nc(N)c(Sc4ccncc4C(F)(F)F)c(=O)n3C)CC2)[C@@H]1N [compound 34, 6-amino-2-((3S,4S)-4-amino-3-methyl-2-oxa-8-azaspiro[4.5]decan-8-yl)-3-methyl-5-((3-(trifluoromethyl)pyridin-4-yl)thio)pyrimidin-4(3H)-one] | 43.6%
4 | C[C@H]1C[C@@H](N)C2(CCN(c3nc(N)c(-c4ccccc4)c(=O)n3C)CC2)C1 [compound 36, 6-amino-2-((1R,3R)-1-amino-3-methyl-8-azaspiro[4.5]decan-8-yl)-3-methyl-5-phenylpyrimidin-4(3H)-one] | 23.8%
5 | Nc1nc(N2CCC3(CCC[C@H]3N)CC2)cnc1Sc1cccc(NC(=O)c2c(O)nc3n(c2=O)CCCC3)c1Cl [compound 47, (R)-N-(3-((3-amino-5-(1-amino-8-azaspiro[4.5]decan-8-yl)pyrazin-2-yl)thio)-2-chlorophenyl)-2-hydroxy-4-oxo-6,7,8,9-tetrahydro-4H-pyrido[1,2-a]pyrimidine-3-carboxamide] | 14.8%
6 | CC[C@@H]1OCC2(CCN(c3nc(N)c(Sc4cccnc4C(F)(F)F)c(=O)n3C)CC2)[C@@H]1N [compound 31, 6-amino-2-((3S,4S)-4-amino-3-ethyl-2-oxa-8-azaspiro[4.5]decan-8-yl)-3-methyl-5-((2-(trifluoromethyl)pyridin-3-yl)thio)pyrimidin-4(3H)-one] | 36.4%
7 | C[C@@H]1OCC2(CCN(c3cnc(Sc4ccnc(N)c4Cl)c(N)n3)CC2)[C@@H]1N [compound 16, (3S,4S)-8-(6-amino-5-((2-amino-3-chloropyridin-4-yl)thio)pyrazin-2-yl)-3-methyl-2-oxa-8-azaspiro[4.5]decan-4-amine] | 34.4%
8 | Cc1nc(N)ccc1-c1[nH]nc2nc(N3CCC4(CC3)CC(F)(F)C[C@H]4N)n(C)c(=O)c12 [compound 41, (R)-3-(6-amino-2-methylpyridin-3-yl)-6-(1-amino-3,3-difluoro-8-azaspiro[4.5]decan-8-yl)-5-methyl-2,5-dihydro-4H-pyrazolo[3,4-d]pyrimidin-4-one] | 25.3%
9 | C[C@H]1C[C@@H](N)C2(CCN(c3nc(N)c(-c4cccc(Cl)c4Cl)c(=O)n3C)CC2)C1 [compound 29, 6-amino-2-((1R,3R)-1-amino-3-methyl-8-azaspiro[4.5]decan-8-yl)-5-(2,3-dichlorophenyl)-3-methylpyrimidin-4(3H)-one] | 25.1%
10 | C[C@H]1C[C@@H](N)C2(CCN(c3nc(N)c(Sc4ccncc4C(F)(F)F)c(=O)n3C)CC2)C1 [compound 28, 6-amino-2-((1R,3R)-1-amino-3-methyl-8-azaspiro[4.5]decan-8-yl)-3-methyl-5-((3-(trifluoromethyl)pyridin-4-yl)thio)pyrimidin-4(3H)-one] | 28.1%
11 | COc1nccc(-c2c[nH]c3nc(N4CCC5(CC4)CO[C@@H](C)[C@H]5N)n(C)c(=O)c23)c1Cl [compound 43, 2-((3S,4S)-4-amino-3-methyl-2-oxa-8-azaspiro[4.5]decan-8-yl)-5-(3-chloro-2-methoxypyridin-4-yl)-3-methyl-3,7-dihydro-4H-pyrrolo[2,3-d]pyrimidin-4-one] | 95.6%
12 | Nc1nc(N2CCC3(CC2)COC[C@H]3N)cnc1Sc1cccc(NC(=O)c2c(O)nc3n(c2=O)CCCC3)c1Cl [compound 53, (S)-N-(3-((3-amino-5-(4-amino-2-oxa-8-azaspiro[4.5]decan-8-yl)pyrazin-2-yl)thio)-2-chlorophenyl)-2-hydroxy-4-oxo-6,7,8,9-tetrahydro-4H-pyrido[1,2-a]pyrimidine-3-carboxamide] | 46.5%
13 | CC1(CN)CCN(c2cnc(Sc3cccc(NC(=O)c4c(O)nc5n(c4=O)CCCC5)c3Cl)c(N)n2)CC1 [compound 48, N-(3-((3-amino-5-(4-(aminomethyl)-4-methylpiperidin-1-yl)pyrazin-2-yl)thio)-2-chlorophenyl)-2-hydroxy-4-oxo-6,7,8,9-tetrahydro-4H-pyrido[1,2-a]pyrimidine-3-carboxamide] | 52.3%
14 | Nc1nc(N2CCC3(CC2)C[C@H](O)C[C@H]3N)cnc1Sc1ccnc(Cl)c1Cl [compound 13, (2S,4R)-4-amino-8-(6-amino-5-((2,3-dichloropyridin-4-yl)thio)pyrazin-2-yl)-8-azaspiro[4.5]decan-2-ol] | 42.8%
15 | CC1(CN)CCN(c2cnc(Sc3cccc(NC(=O)c4c(O)nc5ccccn5c4=O)c3Cl)c(N)n2)CC1 [compound 50, N-(3-((3-amino-5-(4-(aminomethyl)-4-methylpiperidin-1-yl)pyrazin-2-yl)thio)-2-chlorophenyl)-2-hydroxy-4-oxo-4H-pyrido[1,2-a]pyrimidine-3-carboxamide] | 98.9%
16 | C[C@@H]1OCC2(CCN(c3cnc(Sc4cccc(NC(=O)c5c(O)nc6n(c5=O)CCCC6)c4Cl)c(N)n3)CC2)[C@@H]1N [compound 45, N-(3-((3-amino-5-((3S,4S)-4-amino-3-methyl-2-oxa-8-azaspiro[4.5]decan-8-yl)pyrazin-2-yl)thio)-2-chlorophenyl)-2-hydroxy-4-oxo-6,7,8,9-tetrahydro-4H-pyrido[1,2-a]pyrimidine-3-carboxamide] | 12.1%
17 | Nc1nc(N2CCC3(CC2)C[C@@H](O)C[C@H]3N)cnc1Sc1ccnc(Cl)c1Cl [compound 14, (2R,4R)-4-amino-8-(6-amino-5-((2,3-dichloropyridin-4-yl)thio)pyrazin-2-yl)-8-azaspiro[4.5]decan-2-ol] | 51.2%
18 | COc1cccc(Sc2c(N)nc(N3CCC4(CC3)CO[C@@H](C)[C@H]4N)n(C)c2=O)c1Cl [compound 30, 6-amino-2-((3S,4S)-4-amino-3-methyl-2-oxa-8-azaspiro[4.5]decan-8-yl)-5-((2-chloro-3-methoxyphenyl)thio)-3-methylpyrimidin-4(3H)-one] | 39.4%
19 | C[C@H]1C[C@@H](N)C2(CCN(c3cnc(Sc4ccnc(N)c4Cl)c(N)n3)CC2)C1 [compound 12, (1R,3R)-8-(6-amino-5-((2-amino-3-chloropyridin-4-yl)thio)pyrazin-2-yl)-3-methyl-8-azaspiro[4.5]decan-1-amine] | 30.1%
20 | Cn1c(N2CCC3(CC2)CC(F)(F)C[C@H]3N)nc(N)c(Sc2ccnc(N)c2Cl)c1=O [compound 33, (R)-6-amino-2-(1-amino-3,3-difluoro-8-azaspiro[4.5]decan-8-yl)-5-((2-amino-3-chloropyridin-4-yl)thio)-3-methylpyrimidin-4(3H)-one] | 73.3%
21 | CC1(N)CCN(c2cnc(Sc3cccc(NC(=O)c4c(O)nc5ccccn5c4=O)c3Cl)c(N)n2)CC1 [Compound No. 44, N-(3-((3-amino-5-(4-amino-4-methylpiperidin-1-yl)pyrazin-2-yl)thio)-2-chlorophenyl)-2-hydroxy-4-oxo-4H-pyrido[1,2-a]pyrimidine-3-carboxamide] | 37%
22 | C[C@@H]1OCC2(CCN(c3cnc4c(-c5ccnc(Cl)c5Cl)n[nH]c4n3)CC2)[C@@H]1N [compound 39, (3S,4S)-8-(3-(2,3-dichloropyridin-4-yl)-1H-pyrazolo[3,4-b]pyrazin-6-yl)-3-methyl-2-oxa-8-azaspiro[4.5]decan-4-amine] | 97.9%
23 | CC1(CN)CCN(c2nc3[nH]cc(-c4cccc(Cl)c4Cl)c3c(=O)[nH]2)CC1 [compound 38, 2-(4-(aminomethyl)-4-methylpiperidin-1-yl)-5-(2,3-dichlorophenyl)-3,7-dihydro-4H-pyrrolo[2,3-d]pyrimidin-4-one] | 83.9%
24 | Nc1nc(N2CCC3(CC2)COC[C@H]3N)cnc1Sc1ccnc(N)c1Cl [compound 11, (S)-8-(6-amino-5-((2-amino-3-chloropyridin-4-yl)thio)pyrazin-2-yl)-2-oxa-8-azaspiro[4.5]decan-4-amine] | 58.9%
25 | C[C@@H]1OCC2(CCN(c3nc(N)c(Sc4cccc(Cl)c4Cl)c(=O)n3C)CC2)[C@@H]1N [compound 27, 6-amino-2-((3S,4S)-4-amino-3-methyl-2-oxa-8-azaspiro[4.5]decan-8-yl)-5-((2,3-dichlorophenyl)thio)-3-methylpyrimidin-4(3H)-one] | 37.8%
26 | NCC1(c2ccccc2)CCN(c2cnc(-c3cccc(Cl)c3Cl)c(N)n2)CC1 [compound 2, 6-(4-(aminomethyl)-4-phenylpiperidin-1-yl)-3-(2,3-dichlorophenyl)pyrazin-2-amine] | 67%
27 | Nc1nc(N2CCC3(CCC[C@H]3N)CC2)cnc1Sc1ccnc(N)c1Cl [compound 6, (R)-8-(6-amino-5-((2-amino-3-chloropyridin-4-yl)thio)pyrazin-2-yl)-8-azaspiro[4.5]decan-1-amine] | 44.5%
28 | Cc1nc(N)ccc1-c1[nH]nc2nc(N3CCC4(CC3)C[C@@H](C)C[C@H]4N)n(C)c(=O)c12 [compound 40, 3-(6-amino-2-methylpyridin-3-yl)-6-((1R,3R)-1-amino-3-methyl-8-azaspiro[4.5]decan-8-yl)-5-methyl-2,5-dihydro-4H-pyrazolo[3,4-d]pyrimidin-4-one] | 22.4%
29 | C[C@H]1C[C@@H](N)C2(CCN(c3nc(N)c(-c4ccc(Cl)cc4)c(=O)n3C)CC2)C1 [compound 35, 6-amino-2-((1R,3R)-1-amino-3-methyl-8-azaspiro[4.5]decan-8-yl)-5-(4-chlorophenyl)-3-methylpyrimidin-4(3H)-one] | 32.2%
